Reference: US5786355A, “4,6-diarylpyrimidine derivatives and salts thereof” (Taiho Pharmaceutical Co., Ltd., priority 1995, dated 1998)
pIC50: −log10 of the molar value.

System: HUVEC (human umbilical vein endothelial cell)
Test: HUVEC growth inhibition (3H-thymidine uptake)
Type: cell-based
Conditions: 3000 cells per well, RPMI-1640 with ECGS, EGF and 2% serum, 48 hours + 17 hours with 3H-thymidine, control as 100%, read-out: IC50 (concentration showing a 50% growth inhibitory activity)
Experimental: To a 96-well microplate, HUVEC (human umbilical vein endothelial cell; product of Kurabo Industries Ltd.) was added in an amount of 3000 cells per well, followed by culturing in 200 μl of RPMI-1640 medium (Nissui Pharmaceutical Co., Ltd.) containing 10 μg/ml of ECGS (Endothelial Cell Growth Supplement; Collaborative Co., Ltd.), 3 ng/ml of EGF ([…]; product of Genzyme Co., Ltd.) and 2% fatal calf serum at 37° C. for 48 hours using 5% CO2. To each well, 0.1 μCi (3.7 KBq) of ^3 H-Tymidine was added, followed by culturing for 17 hours. Then, the cells were collected on a glass filter and washed with 5% trichloroacetic acid and ethanol. The radioactivity taken in was measured by a β-plate (Pharmacia Laboratories, Inc.). The concentration showing a 50% growth inhibitory activity (IC50) was calculated with a control as 100%.

Going from COc1cc(OC)c(-c2cc(-c3nccs3)nc(N(C)C)n2)cc1OC [Compound 30] to COc1cc(OC)c(-c2cc(-c3cc(OC)c(O)c(OC)c3)nc(N(C)C)n2)cc1OC [Compound 24], the pIC50 rises from 6.15 to 6.68 (0.53 log units).

First: COc1cc(NS(C)(=O)=O)c(-c2cc(-c3cc(OC)c(OC)cc3OC)nc(N(C)C)n2)cc1OC [Compound 27]
Second: COc1cc(OC)c(-c2cc(-c3cc(OC)c(OC)cc3OC)nc(N(C)C)n2)cc1OC [Compound 2]
The pIC50 of the first is 0.51 log units higher: 7.17 for the first, 6.66 for the second.

Compared with COc1cc(OC)c(-c2cc(-c3cc(OC)c(OC)cc3OC)nc(N)n2)cc1OC [Compound 3], COc1cc(OC)c(-c2cc(-c3cc(OC)c(OC)cc3OC)nc(NS(C)(=O)=O)n2)cc1OC [Compound 31] is 0.32 log units lower in pIC50: 6.60 for the first, 6.28 for the second. The first is the more potent here.

First: CCN(CC)c1nc(-c2ccc(OP(=O)(O)O)cc2)cc(-c2cc(OC)c(OC)cc2OC)n1 [Compound 43]
Second: CCN(CC)c1nc(-c2ccc(OCCN3CCCCC3)cc2)cc(-c2cc(OC)c(OC)cc2OC)n1 [Compound 41]
The pIC50 of the first is 0.71 log units higher: 6.48 for the first, 5.77 for the second. The first is the more potent here.

Going from COc1cc(OC)c(-c2cc(-c3ccc(OCCN(C)C)cc3)nc(N(C)C)n2)cc1OC [Compound 8] to CCN(CC)c1nc(-c2ccc(OC)cc2OC)cc(-c2cc(OC)c(OC)cc2OC)n1 [Compound 17], the pIC50 rises from 5.96 to 6.28 (0.32 log units). The second is the more potent here.

CCN(CC)c1nc(-c2cc(OC)c(OC)c(OC)c2)cc(-c2cc(OC)c(OC)cc2OC)n1 [Compound 20, 2-diethylamino-4-(3,4,5-trimethoxyphenyl)-6-(2,4,5-trimethoxyphenyl)pyrimidine] and CCN(CC)c1nc(-c2cc(OC)c(OC)cc2OC)cc(-c2cc(OC)c(OC)cc2OC)n1 [Compound 9] are within 0.2 log units of each other in pIC50: 6.28 for the first, 6.44 for the second.

System: not given
Test: not given
Conditions: J. INDIAN CHEM. SOC., 70, 266-267(1993); cited from earlier work

In the case of COc1ccc(-c2cc(-c3ccc(OC)c(OC)c3)nc(N)n2)c(OC)c1 [2-amino-4-(2,4-dimethoxyphenyl)-6-(3,4-dimethoxyphenyl)pyrimidine], the antibacterial activity is listed as “no antibacterial activity”.
